Data reported in article PMC12670427, “FDA Drug Repurposing Uncovers Modulators of Dopamine D2 Receptor Localization via Disruption of the NCS‑1 Interaction” (Journal of Medicinal Chemistry, 2025).
Values joined by “and” are separate entries in the source; they are usually repeats but may differ in a detail not shown here. Equal values may be shown once. Where a name gives a salt, the structure may show the parent alone.

Key:
[1] = test system: D2R subcellular localization in HEK293 cells; assay: Sequential immunostaining for D2R localization (membrane vs cytoplasm); assay type: cell-based, human; details: for effect of trafficking tool compounds on NCS-1-induced D2R membrane localization: HEK293 cells, NCS-1 overexpression
Protocol: HEK293 cells were seeded on poly-D-lysine-coated glass coverslips in 24-well plates. Following transfection and drug treatments, cells were fixed with 2% paraformaldehyde (PFA) for 10 min and with 4% PFA for an additional 10 min at room temperature. Coverslips with fixed cells were then blocked in PBS containing 10% normal goat serum (NGS) for 30 min at room temperature.
After three PBS washes, fluorescence was fixed with 10% formaldehyde for 3 min. The second round started with a blocking step using PBS containing 10% NGS and 0.03% Triton X-100 for 1 h at room temperature. […] Coverslips were washed with PBS and mounted using ProLong Gold Antifade (Thermo Fisher Scientific) with Hoechst for nuclear counterstaining. Confocal images were acquired using either a Leica SP5 or a Nikon ECLIPSE Ti microscope, depending on the experiment. […] Individual confocal images were processed by setting intensity thresholds for the green (cytoplasmic) and red (membrane) channels. Fluorescence intensity was then measured separately for each channel, and the relative proportion of green to red signal was calculated for each image.

[2] = known drug property listed in Supplementary Table 1, no reference given; cited from earlier work
[3] = Solubility under the binding assay conditions; assay type: physicochemical; details: SPR running buffer; precipitated on the sensor chip
Text: (§1) Sensorgrams data were double-referenced and solvent-corrected using the BiaEvaluation X-100 software (Biacore, GE).

full-length NCS-1 [4] = target: T1, full-length NCS-1 (Homo sapiens, UniProt P62166); assay: Tryptophan intrinsic emission fluorescence binding to full-length NCS-1; details: full-length NCS-1 5 μM, Trp emission at 330 nm, 35 °C, apparent Kd mean ± SD
T1 construct: For biophysical and crystallographic assays, full-length human NCS-1; made in house
T1 sequence (P62166 whole entry): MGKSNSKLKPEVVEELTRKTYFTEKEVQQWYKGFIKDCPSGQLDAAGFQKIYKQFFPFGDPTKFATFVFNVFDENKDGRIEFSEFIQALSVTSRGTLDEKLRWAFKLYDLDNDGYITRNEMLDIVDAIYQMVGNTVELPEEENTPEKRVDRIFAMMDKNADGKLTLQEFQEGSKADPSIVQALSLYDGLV
Protocol: To experimentally assess the binding of the FDA-approved drug library to NCS-1 we used tryptophan emission fluorescence. ,, Fluorescence intensity changes were measured at 330 nm in full-length NCS-1 upon increasing concentrations of the selected compounds (Figure A).

NCS-1/D2R interaction = target: T2, NCS-1/D2R interaction (Homo sapiens, UniProt P62166); assay: Proximity ligation assay (PLA) with flow cytometry; assay type: cell-based; details: HEK293 cells, 5 μM, 16 h; vehicle set to 100%; mean ± SD
T2 construct: expressed in transfected cells; host or cells: HEK293
T2 sequence (P62166 2-190 limits assumed): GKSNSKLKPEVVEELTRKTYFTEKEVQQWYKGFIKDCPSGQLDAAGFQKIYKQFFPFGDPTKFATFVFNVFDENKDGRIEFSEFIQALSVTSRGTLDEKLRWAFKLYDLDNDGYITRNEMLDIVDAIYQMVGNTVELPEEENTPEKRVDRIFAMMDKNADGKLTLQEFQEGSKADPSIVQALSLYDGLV

NCS-1ΔH10 = target: T3, NCS-1ΔH10 (Homo sapiens, UniProt P62166); assay: Intrinsic emission fluorescence binding to NCS-1ΔH10; details: NCS-1ΔH10, intrinsic emission fluorescence; read-out: apparent binding affinity for H10-truncated NCS-1
T3 construct: NCS-1 construct lacking helix H10; made in house
T3 sequence (P62166 1-177 limits assumed, stated change not applied): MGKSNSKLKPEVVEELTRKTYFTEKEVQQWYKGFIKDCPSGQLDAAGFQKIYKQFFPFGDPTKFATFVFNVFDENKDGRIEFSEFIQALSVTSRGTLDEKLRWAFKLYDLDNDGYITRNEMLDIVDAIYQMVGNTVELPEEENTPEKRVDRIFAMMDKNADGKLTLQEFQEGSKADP
Protocol: To determine the affinity of the FDA-approved drugs for full-length NCS-1 or NCS-1ΔH10, we used fluorescence techniques, since the presence of tryptophan (Trp) and tyrosine (Tyr) residues in NCS-1 sequence confers the protein intrinsic emission fluorescence when excited at 295 nm. Fluorescence intensity was monitored at 330 nm and 35 °C with a nano-DSF machine (nanoTemper). Protein concentration was set to 5 μM in a buffer containing Tris 50 mM pH 8.0, NaCl 125 mM, CaCl2 5 μM, 5% DMSO. Ligand concentration was increased up to 150 μM. Three independent experiments were performed for each protein:ligand ratio. […] In fact, compound FDA-02, 09, 11, 15, 21, and 22 were measured using SPR due to their high intrinsic emission at 330 nm. The apparent dissociation constant, K d, was obtained by using a least-squares algorithm to fit the recorded data to the equation previously described. Apparent K d values are reported as mean ± SD. ,
Prior crystallization, the contribution of the helix H10 to ligand binding was assessed in case this information could guide construct selection for structural studies. […] Given the initial high affinity of AZS for full-length NCS-1, the affinity for the H10-truncated construct was not measured. Initial crystallization screenings yielded to crystals of ATV in complex with full-length NCS-1. […]

full-length NCS-1 [5] = target: T1, full-length NCS-1; assay: Surface plasmon resonance over CM4-immobilized NCS-1; assay type: binding; details: SPR, NCS-1 immobilized on CM4 chip, 25 °C; used for compounds that emit at 330 nm; read-out: NCS-1/FDA Affinity, Kd
Text: In these experiments, full-length NCS-1 was cross-linked to the surface of the biosensor, through its lysine amino acids, since these residues are concentrated on the upper surface and opposite to the hydrophobic crevice. This arrangement ensured that the hydrophobic crevice remained exposed to the solvent.
NCS-1 was immobilized on a CM4 sensor chip (Biacore, GE) following a standard amine coupling method. The carboxymethyl dextran surface of the flow cell 2 was activated by injecting a 1:1 mixture of 0.4 M EDC and 0.1 M NHS for 7 min. The protein was then covalently coupled to the surface via a 7 min injection at several dilutions, with a final concentration of 100 μg/mL in 10 mM sodium acetate, pH 4.0. Unreacted N-hydroxysuccinimide esters were quenched by a 7 min injection of 0.1 M ethanolamine-HCl pH 8.0, achieving an immobilization level of 5000 RUs. Flow cell 1, subjected to the same amine coupling procedure but without protein, served as a reference (Supplementary Figure 3A). Prior to use, 10 mM stock solutions of FDA-approved drugs were serially diluted to final concentration of 100 μM in running buffer. […] After dissociation, an additional wash step was performed using a 50% DMSO solution. Regeneration was not required.
as §1

[6] = read-out: NCS-1/FDA Affinity, Kd

Molecule | Crossing the blood-brain barrier [2] | Kd (full-length NCS-1 [4]; [6]) | also measured
O=C(N/N=C/c1ccc(O)c(O)c1)c1cc2ccccc2cc1O [Dynasore] |  |  | effect of trafficking tool compounds on NCS-1-induced D2R membrane localization [1]: did not significantly affect
CCOc1nc2cccc(C(=O)OCc3oc(=O)oc3C)c2n1Cc1ccc(-c2ccccc2-c2noc(=O)[nH]2)cc1 [Azilsartan medoxomil] | Low penetrance |  | 
O=C1Cc2cc(CCN3CCN(c4nsc5ccccc45)CC3)c(Cl)cc2N1 [ziprasidone] |  |  | solubility under the experimental conditions [3]: low solubility
CCCCCCCN(CC)CCCC(O)c1ccc(NS(C)(=O)=O)cc1 (centres unmarked) [Ibutilide fumarate] | No |  | NCS-1/FDA Affinity, Kd (full-length NCS-1 [4]): No affinity
CC(C)CN(C[C@@H](O)[C@H](Cc1ccccc1)NC(=O)O[C@H]1CO[C@H]2OCC[C@H]21)S(=O)(=O)c1ccc(N)cc1 [Darunavir] | No |  | 
COC(=O)N[C@H](C(=O)N1CCC[C@H]1c1nc(-c2ccc(-c3ccc(-c4c[nH]c([C@@H]5CCCN5C(=O)[C@@H](NC(=O)OC)C(C)C)n4)cc3)cc2)c[nH]1)C(C)C [Daclatasvir] | No | 7.2 ± 0.1 µM | PPI modulation (PLA): NCS-1/D2R binding relative to vehicle-treated controls (NCS-1/D2R interaction): 114.6 ± 17.4%
CCN(CC)CCNC(=O)c1c(C)[nH]c(/C=C2\C(=O)Nc3ccc(F)cc32)c1C [Sunitinib] | No |  | 
CCN(CC)CCOc1ccc(C(=C(Cl)c2ccccc2)c2ccccc2)cc1 [Clomiphene citrate] | No |  | 
CNCCCC1c2ccccc2C=Cc2ccccc21 [Protriptyline hydrochloride] | Yes |  | 
Cc1c(O)cccc1C(=O)N[C@@H](CSc1ccccc1)[C@H](O)CN1C[C@H]2CCCC[C@H]2C[C@H]1C(=O)NC(C)(C)C [Nelfinavir] | No | 47.6 ± 4.1 µM | PPI modulation (PLA): NCS-1/D2R binding relative to vehicle-treated controls (NCS-1/D2R interaction): 112.0 ± 12.7%
C[C@]12CC[C@@H]3c4ccc(O)cc4C[C@@H](CCCCCCCCC[S+]([O-])CCCC(F)(F)C(F)(F)F)[C@H]3[C@@H]1CC[C@@H]2O (some centres unmarked) [Faslodex] | No |  | 
CCN(CC)CCCC(C)Nc1ccnc2cc(Cl)ccc12 (centres unmarked) [Chloroquine] | Yes | 200 ± 35 µM | 
CC(C)c1c(C(=O)Nc2ccccc2)c(-c2ccccc2)c(-c2ccc(F)cc2)n1CC[C@@H](O)C[C@@H](O)CC(=O)O [Atorvastatin] |  | 53 µM and 53.1 µM | Kd (NCS-1ΔH10): 17 µM
OCc1cc(C(O)CNCCCCCCOCCCCc2ccccc2)ccc1O (centres unmarked) [Salmeterol] | Yes |  | Kd (full-length NCS-1 [5]): 68.2 ± 17.9 µM; PPI modulation (PLA): NCS-1/D2R binding relative to vehicle-treated controls (NCS-1/D2R interaction): 96.5 ± 17.2%
CN1C[C@H](C(=O)N[C@]2(C)O[C@@]3(O)[C@@H]4CCCN4C(=O)[C@H](Cc4ccccc4)N3C2=O)C=C2c3cccc4[nH]cc(c34)C[C@H]21 [Ergotamine] | No |  | Kd (full-length NCS-1 [4]; NCS-1/FDA Affinity, Kd): 122 ± 18 µM
Cc1ccc(NC(=O)c2ccc(CN3CCN(C)CC3)cc2)cc1Nc1nccc(-c2cccnc2)n1 [Imatinib] | Yes |  | 
C[C@H]1CCC/C=C/[C@@H]2C[C@H](O)C[C@H]2[C@H](O)/C=C/C(=O)O1 [BFA, Brefeldin A] |  |  | effect of trafficking tool compounds on NCS-1-induced D2R membrane localization [1]: prevented the NCS-1-induced increase in membrane D2R
CCCN(CCC)CCc1cccc2c1CC(=O)N2 [Ropinirole] |  |  | effect of trafficking tool compounds on NCS-1-induced D2R membrane localization [1]: reversed this effect
CCN(CCO)CCCC(C)Nc1ccnc2cc(Cl)ccc12 (centres unmarked) [Hydroxychloroquine sulfate] | Yes | 353 ± 138 µM | 
Capreomycin sulfate |  |  | effect on NCS-1-induced D2R membrane localization ([1]; HEK293 cells cotransfected with D2R and NCS-1, 5 μM, 2 h): modest effect
N#Cc1ccc2[nH]cc(CCCCN3CCN(c4ccc5oc(C(N)=O)cc5c4)CC3)c2c1 [Vilazodone] | Yes | 34 µM and 34.4 µM | Kd (NCS-1ΔH10): 8 µM; effect on D2R localization in the absence of NCS-1 overexpression ([1]; HEK293 cells transfected with D2R alone): affected D2R localization
CS(=O)(=O)CCNCc1ccc(-c2ccc3ncnc(Nc4ccc(OCc5cccc(F)c5)c(Cl)c4)c3c2)o1 [Lapatinib] | No |  | 
CCCCCCOC(=O)NC(=N)c1ccc(NCc2nc3cc(C(=O)N(CCC(=O)OCC)c4ccccn4)ccc3n2C)cc1 [Dabigatran etexilate] | No | 13.2 ± 2.5 µM | 
